The test system of the assay is MDA-MB-468 breast. Briefly: NCI tumour cell line growth inhibition, 48 h.

SMILES strings stand for the structures. Where “and” joins values, the source holds several entries; their conditions need not be identical. Equal entries are not always repeated.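 Interpolation was linear, between the two tested concentrations surrounding the appropriate level; five concentrations were tested over 48 hours in 96-well plates. GI50: concentration for 50% inhibition of growth. TGI marks complete inhibition of growth.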 Where a SMILES comes first, the peptide text is derived from it. [ ]: non-standard residue; d: D form. NMeY = CN[C@@H](Cc1ccc(O)cc1)C(=O)O; dNMeF = CN[C@H](Cc1ccccc1)C(=O)O; Sar = CNCC(=O)O

Turning to `CC[C@H](C)[C@H](NC(=O)Nc1ccccc1)C(=O)N(C)[C@H](C[C@@H](OC(C)=O)c1nc(C(=O)N[C@@H](Cc2ccccc2)C[C@H](C)C(=O)OC)cs1)C(C)C`, the GI50 was 0.514 µM and the TGI turned out to be 7.22 µM.

As for `Cc1ccc2c(Nc3cccc(Cl)c3F)ncc(NC(=O)c3csc4c(N)ncnc34)c2c1`, the GI50 is more than 100 µM and the TGI is more than 100 µM.

For the compound `O=C(NC(=S)NNC(=S)NNc1ccccc1)c1ccccc1`, the GI50 was 8.92 µM and the TGI was more than 100 µM.

For `C/C(=N\NC(=O)c1ccccc1O)c1cccc(/C(C)=N/NC(=O)c2ccccc2O)n1`, the GI50 was 0.317 µM and the TGI is more than 100 µM.

For the compound `CC[C@H](C)[C@@H]1NC(=O)[C@H](Cc2ccc(O)cc2)N(C)C(=O)[C@H](Cc2ccccc2)NC(=O)CN(C)C(=O)[C@@H]2CCCN2C(=O)[C@@H](Cc2ccccc2)N(C)C(=O)[C@H](CC(C)C)NC1=O` (cyclo(F[NMeY]IL[dNMeF]P[Sar])), the GI50 is 0.367 µM and the TGI was determined as 2.82 µM.

Regarding `CCCCCCCCCCCC[n+]1ccccc1`, the GI50 is 0.252 µM and the TGI was 2.02 µM.

On to `COc1ccc2[nH]c(=O)c(/C=C/C(=O)/C=C/c3ccc(O)c(OC)c3)cc2c1`, for which the GI50 is 1.37 µM and the TGI amounted to 4.58 µM.

For `Nc1nc(N)c2c(ccc3nccc32)[nH]1`, the GI50 is 3.28 µM and the TGI is 21.3 µM.

As for `CC1(C)N=C(N)N=C(N)N1c1cccc(CCCCc2ccccc2)c1`, the GI50 is 0.149 µM and the TGI is 13.8 µM.

Turning to `CO[C@H]1C[C@@H]2CC[C@@H](C)[C@@](O)(O2)C(=O)C(=O)N2CCCC[C@H]2C(=O)O[C@H]([C@H](C)C[C@@H]2CC[C@@H](OP(C)(C)=O)[C@H](OC)C2)CC(=O)[C@H](C)/C=C(\C)[C@@H](O)[C@@H](OC)C(=O)[C@H](C)C[C@H](C)/C=C/C=C/C=C/1C`, the GI50 is less than 0.01 µM and the TGI was found to be 17.1 µM.

On to `Cc1ccc(N=Nc2c(N)nn(-c3ccccc3)c2N)cc1`, for which the GI50 is 0.613 µM and the TGI was more than 100 µM.

With `CC1(C)CC(=O)c2c(ccc(C(=O)C[C@H](N)CO)c2N)O1`, the TGI was 17.5 µM and 5.83 µM.

Consider `C=CC(=O)N1CCC([C@@H]2CCNc3c(C(N)=O)c(-c4ccc(Oc5ccccc5)cc4)nn32)CC1`, for which the GI50 is 0.057 µM and the TGI came to 0.711 µM.

In the case of `COc1ccc(-c2cc(-c3cn[nH]c3-c3ccccn3)ccn2)cc1`, the GI50 is more than 25 µM and the TGI is more than 25 µM.

Consider `N#Cc1cccc(/C=C(/C(=O)c2ccccc2)c2ccccc2)c1`, for which the GI50 is 2.3 µM and the TGI was 7.63 µM.

Regarding `N#CSCc1c(Cl)cccc1Cl`, the GI50 is 3.82 µM and the TGI is more than 100 µM.

On to `CC1(C)CC(OCCCC[P+](c2ccccc2)(c2ccccc2)c2ccccc2)CC(C)(C)N1O`, for which the GI50 is 0.331 µM and the TGI stood at 2.87 µM.

Turning to `Cc1ncc(C(=O)Nc2ccc(CN3CCN(C)CC3)c(C(F)(F)F)c2)cc1C#Cc1cnc(N)c2ncccc12`, the GI50 is 1.1 µM and the TGI turned out to be 2.58 µM.

As for `O=c1oc2ccc(Cl)cc2c(=O)n1-c1cc(C(F)(F)F)cc(C(F)(F)F)c1`, the GI50 was 0.236 µM and the TGI was 0.754 µM.

`Nc1c(C(=O)c2cccc(C#CCN3CCOCC3)c2)cnn1-c1ccc(F)cc1`: the GI50 was 9.82 µM and the TGI was more than 25 µM.

Consider `C#C[C@@]1(O)[C@@H](CO)O[C@@H](n2ccc3c(N)ncnc32)[C@@H]1O`, for which the GI50 was 1.3 µM and the TGI stood at 3.33 µM.

As for `C[C@H](Nc1ncnc2ccc(-c3cnc(Cl)c(NS(C)(=O)=O)c3)cc12)c1ccccc1`, the GI50 was 0.111 µM and the TGI came to 0.841 µM.

As for `CN(C)C(=O)c1cc2cnc(Nc3ccc(-c4csc5c(=O)cc(N6CCNCC6)oc45)cc3)nc2n1C1CCCC1`, the GI50 is 0.482 µM and the TGI was 2.53 µM.

On to `CC1(O)CC2(O)C=CC3=C(C(=O)c4cccc(O)c4C3=O)C2(O)C(=O)C1O` (configuration not stated), for which the GI50 was 0.735 µM and the TGI was 2.09 µM.

Consider `COc1ccc2c(c1)sc1nc(-c3ccccc3)c(-c3ccc(O)c(OC)c3)n12`, for which the GI50 was 24.4 µM and the TGI was more than 100 µM.

On to `CCOC(=O)Cn1c(C)c(/C=N/NC(=O)c2cc3c(ccc4ccccc43)o2)c2ccccc21`, for which the GI50 was 0.326 µM and the TGI came to 1.34 µM.

Turning to `CN1CCN(Cc2ccc(NC(=O)c3nc4ccc5[nH]ncc5c4c4c3CCC4)cc2C(F)(F)F)CC1`, the GI50 is 0.936 µM and the TGI turned out to be 2.08 µM.

Turning to `COc1cccc(-n2ncc3c(N/N=C/c4ccc(S(C)(=O)=O)cc4)ncnc32)c1`, the GI50 is 3.66 µM and the TGI came out at 16.5 µM.

For `CC(=O)OC1CCC2(C)C(CCC3C4CC=C(C(C)=O)C4(C)OC(=O)CC32)C1` (configuration not stated), the GI50 is 1.64 µM and the TGI stood at 3.74 µM.

Turning to `O=C1c2ccccc2-c2n[nH]c3cccc1c23`, the GI50 is 17.3 µM and the TGI was more than 100 µM.

Turning to `Cc1cc2c3ccccc3ccc2[n+]2ccccc12`, the GI50 was 0.524 µM and the TGI came to 2.13 µM.

Consider `COc1cc(Cn2ccc3c2-c2oncc2CC3)cc(OC)c1`, for which the GI50 is 0.84 µM and the TGI was found to be 7 µM.

For the compound `Nc1ccn(C2CC(O)C(CO)O2)c(=O)n1` (configuration not stated), the GI50 was more than 5000 µM and the TGI is more than 5000 µM.

As for `COc1ccc(/C=C/C(=O)c2ccc3cc(OC)c(OC)cc3c2)cc1OC`, the GI50 is 2.68 µM and the TGI was 10.2 µM.

With `Cc1ccc(-c2cc3nc(C(Cl)Cl)nc(-c4cccnc4)n3n2)cc1`, the GI50 is 0.407 µM and the TGI turned out to be 2.13 µM.

With `O=C1Nc2cc(Cl)ccc2/C1=C\c1ccc(OCc2ccc(Br)cc2F)cc1`, the GI50 is 2.13 µM and the TGI worked out at 5.21 µM.

Turning to `CNC(=O)c1cc(-n2ccc3cc(NC(=O)Nc4ccc(N5CCN(C)CC5)c(C(F)(F)F)c4)ccc32)ccn1`, the GI50 was 3.48 µM and the TGI was 7.57 µM.

In the case of `CCN(C(=O)CCl)C(C)(C)C(SSSC(c1ccc(Cl)cc1)C(C)(C)N(CC)C(=O)CCl)c1ccc(Cl)cc1` (configuration not stated), the GI50 was 1.97 µM and the TGI was 5.39 µM.

On to `ClC1=NC(Cl)C(Cl)=N/C1=N\c1ncn[nH]1` (configuration not stated), for which the GI50 is 1.6 µM and the TGI was 3.39 µM.

For `c1ccc(-c2nnc(Nc3ccc4c(c3)OCCO4)o2)c(NCc2ccncc2)c1`, the GI50 is 0.0953 µM and the TGI was 0.528 µM.

For the compound `CCOC(=O)c1ccc(Nc2sc(C(=O)c3cccc([N+](=O)[O-])c3)c(N)c2C#N)cc1`, the GI50 was 0.222 µM and the TGI was found to be 4.53 µM.

Take `C/C(=C(/c1ccc(O)cc1)c1ccc(OCCN2CCCCCC2)cc1)c1ccccc1`: the GI50 was 41.2 µM and the TGI is more than 100 µM.

`Nc1c(C(=O)c2cccc(CCC3(O)CCCC3)c2)cnn1-c1ccc(F)cc1`: the GI50 was 5.97 µM and the TGI is more than 25 µM.

Turning to `ICCC(c1ccccc1)(c1ccccc1)c1ccccc1`, the GI50 is 3.17 µM and the TGI was found to be 13.3 µM.

The values above are taken from PubChem BioAssay (NCI).
